What was measured:
[1] = target: MAPK14 (UniProt Q16539); assay: MAPK14 Kinase Inhibition
[2] = target: MAPK14 (UniProt Q16539); assay: MAPK14 Kinase Binding Inhibition
[3] = target: MAPK14 (UniProt Q16539); assay: TNF Inhibition (In Vivo)

Sequence of MAPK14 (Q16539 whole entry, looked up): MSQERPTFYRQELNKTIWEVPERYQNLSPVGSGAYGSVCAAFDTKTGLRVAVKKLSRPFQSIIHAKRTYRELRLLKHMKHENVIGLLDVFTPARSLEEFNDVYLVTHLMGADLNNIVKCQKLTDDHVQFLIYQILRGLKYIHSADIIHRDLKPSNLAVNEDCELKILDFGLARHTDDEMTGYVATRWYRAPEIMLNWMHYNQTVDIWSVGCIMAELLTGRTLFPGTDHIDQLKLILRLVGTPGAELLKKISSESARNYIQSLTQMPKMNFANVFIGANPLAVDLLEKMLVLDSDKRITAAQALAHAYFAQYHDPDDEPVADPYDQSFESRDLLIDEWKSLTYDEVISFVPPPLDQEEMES

| SMILES | IC50 [1] [µM] | inhibition [2] [µM] | inhibition [3] [µM] |
| --- | --- | --- | --- |
| Fc1ccc(-c2ncn(C3CCNCC3)c2-c2ccnc(Nc3cccc(C(F)(F)F)c3)n2)cc1 | < 50 | – | – |
| CCOC(=O)N1CCC(n2cnc(-c3ccc(F)cc3)c2-c2ccnc(Nc3ccc(OCc4ccccc4)cc3)n2)CC1 | < 50 | – | – |
| C[S+]([O-])c1ccc(-c2ncn(C3CCNCC3)c2-c2ccnc(Nc3ccccc3)n2)cc1 (stereo not given) | < 50 | – | – |
| CSc1ccc(-c2ncn(C3CCNCC3)c2-c2ccnc(Nc3ccccc3)n2)cc1 | < 50 | – | – |
| CC1(C)CC(n2cnc(-c3ccc(F)cc3)c2-c2ccnc(Nc3ccccc3)n2)CC(C)(C)N1 | – | < 50 | – |
| O=C1CCC(n2cnc(-c3ccc(F)cc3)c2-c2ccnc(Nc3ccccc3)n2)CC1 | – | < 50 | < 50 |
| Fc1ccc(-c2ncn(C3CCNCC3)c2-c2ccnc(Nc3ccccc3)n2)cc1 | – | < 50 | < 50 |
| Oc1ccc(Nc2nccc(-c3c(-c4ccc(F)cc4)ncn3C3CCNCC3)n2)cc1 | < 50 | – | – |
| COc1cccc(Nc2nccc(-c3c(-c4ccc(F)cc4)ncn3C3CCNCC3)n2)c1 | < 50 | – | – |
| COc1ccccc1Nc1nccc(-c2c(-c3ccc(F)cc3)ncn2C2CCNCC2)n1 | < 50 | – | – |
| CN1CCC(n2cnc(-c3ccc(F)cc3)c2-c2ccnc(NCc3ccc4c(c3)OCO4)n2)CC1 | – | < 50 | – |
| CN1CCC(n2cnc(-c3ccc(F)cc3)c2-c2ccnc(Nc3ccccc3)n2)CC1 | – | < 50 | < 50 |
| Fc1ccc(-c2ncn(C3CCNCC3)c2-c2ccnc(Nc3cccc(F)c3)n2)cc1 | < 50 | – | < 50 |
| CN1CCC(n2cnc(-c3ccc(F)cc3)c2-c2ccnc(NCCO)n2)CC1 | – | < 50 | < 50 |
| Fc1ccc(Nc2nccc(-c3c(-c4ccc(F)cc4)ncn3C3CCNCC3)n2)cc1 | < 50 | – | < 50 |
| CN1CCC(n2cnc(-c3ccc(F)cc3)c2-c2ccnc(Nc3cccc(Br)c3)n2)CC1 | – | < 50 | – |
| O[C@H]1CC[C@H](n2cnc(-c3ccc(F)cc3)c2-c2ccnc(Nc3ccccc3)n2)CC1 | – | < 50 | – |
| CN1CCC(n2cnc(-c3ccc(F)cc3)c2-c2ccnc(NCc3cccc4ccccc34)n2)CC1 | – | < 50 | < 50 |
| CN1CCC(n2cnc(-c3ccc(F)cc3)c2-c2ccnc(NCc3cccc(Cl)c3)n2)CC1 | – | < 50 | < 50 |

| SMILES | IC50 [1] [µM] | inhibition [2] [µM] | inhibition [3] [µM] |
| --- | --- | --- | --- |
| CN1CCC(n2cnc(-c3ccc(F)cc3)c2-c2ccnc(NC3CCN(Cc4ccccc4)CC3)n2)CC1 | – | < 50 | – |
| Fc1ccc(cc1)c2ncn(C3CCNCC3)c2c4ccnc(NCCCN5=CNC=C5)n4 | – | < 50 | – |
| CN1CCC(n2cnc(-c3ccc(F)cc3)c2-c2ccnc(NC3CC(C)(C)NC(C)(C)C3)n2)CC1 | – | < 50 | – |
| CCOCCCNc1nccc(-c2c(-c3ccc(F)cc3)ncn2C2CCNCC2)n1 | – | < 50 | – |
| CN1CCC(n2cnc(-c3ccc(F)cc3)c2-c2ccnc(NC3CCNCC3)n2)CC1 | – | < 50 | – |
| COc1ccc(Nc2nccc(-c3c(-c4ccc(F)cc4)ncn3C3CCNCC3)n2)cc1 | < 50 | – | – |
| Fc1ccc(-c2ncn(C3CCNCC3)c2-c2ccnc(NCCCn3ccnc3)n2)cc1 | – | – | < 50 |
| Fc1ccc(-c2ncn(C3CCNCC3)c2-c2ccnc(Nc3ccccc3)c2)cc1 | – | < 50 | < 50 |
| Fc1ccc(-c2ncn(C3CCNCC3)c2-c2ccnc(Nc3ccc(F)c(F)c3)n2)cc1 | < 50 | – | – |
| CCOC(=O)N1CCC(Nc2nccc(-c3c(-c4ccc(F)cc4)ncn3C3CCN(C)CC3)n2)CC1 | – | < 50 | – |
| CC1(C)CC(n2cnc(-c3ccc(F)cc3)c2-c2ccnc(NCCO)n2)CC(C)(C)N1 | – | < 50 | < 50 |
| NCCNc1nccc(-c2c(-c3ccc(F)cc3)ncn2C2CCNCC2)n1 | – | 50 | – |
| CN1CCC(n2cnc(-c3ccc(F)cc3)c2-c2ccnc(NCCCN3CCOCC3)n2)CC1 | – | < 50 | – |
| CCOC(=O)N1CCC(n2cnc(-c3ccc(F)cc3)c2-c2ccnc(Nc3cccc(OCc4ccccc4)c3)n2)CC1 | < 50 | – | – |
| CN1CCC(n2cnc(-c3ccc(F)cc3)c2-c2ccnc(NCCc3c[nH]c4ccc(Cl)cc34)n2)CC1 | – | < 50 | – |
| CN1CCC(n2cnc(-c3ccc(F)cc3)c2-c2ccnc(NC3CCSCC3)n2)CC1 | – | < 50 | – |
| Oc1cccc(Nc2nccc(-c3c(-c4ccc(F)cc4)ncn3C3CCNCC3)n2)c1 | < 50 | – | – |
| Fc1ccc(-c2ncn(C3CCNCC3)c2-c2ccnc(Nc3ccccc3F)n2)cc1 | < 50 | – | < 50 |
| CN1CCC(n2cnc(-c3ccc(F)cc3)c2-c2ccnc(NCc3ccccc3)n2)CC1 | – | < 50 | < 50 |

From the Kinase Knowledgebase extract (Sharma et al. 2016)
